Measured values from paper PMC9516332 (Frontiers in Oncology, 2022).
Where two headings read alike, the source gives them in different places.

Key:
[1] = target: T1, panel of 255 wild-type kinases (Homo sapiens, UniProt Q9BZL6); experiment: Kinase panel profiling at 1 µmol/L (MSA or IMAP), percentage inhibition; assay type: biochemical; settings: kinase PKD2; 1 µmol/L single concentration; read-out: %-inhibition at 1 µmol/L, PKD2
T1 sequence (Q9BZL6 1-878): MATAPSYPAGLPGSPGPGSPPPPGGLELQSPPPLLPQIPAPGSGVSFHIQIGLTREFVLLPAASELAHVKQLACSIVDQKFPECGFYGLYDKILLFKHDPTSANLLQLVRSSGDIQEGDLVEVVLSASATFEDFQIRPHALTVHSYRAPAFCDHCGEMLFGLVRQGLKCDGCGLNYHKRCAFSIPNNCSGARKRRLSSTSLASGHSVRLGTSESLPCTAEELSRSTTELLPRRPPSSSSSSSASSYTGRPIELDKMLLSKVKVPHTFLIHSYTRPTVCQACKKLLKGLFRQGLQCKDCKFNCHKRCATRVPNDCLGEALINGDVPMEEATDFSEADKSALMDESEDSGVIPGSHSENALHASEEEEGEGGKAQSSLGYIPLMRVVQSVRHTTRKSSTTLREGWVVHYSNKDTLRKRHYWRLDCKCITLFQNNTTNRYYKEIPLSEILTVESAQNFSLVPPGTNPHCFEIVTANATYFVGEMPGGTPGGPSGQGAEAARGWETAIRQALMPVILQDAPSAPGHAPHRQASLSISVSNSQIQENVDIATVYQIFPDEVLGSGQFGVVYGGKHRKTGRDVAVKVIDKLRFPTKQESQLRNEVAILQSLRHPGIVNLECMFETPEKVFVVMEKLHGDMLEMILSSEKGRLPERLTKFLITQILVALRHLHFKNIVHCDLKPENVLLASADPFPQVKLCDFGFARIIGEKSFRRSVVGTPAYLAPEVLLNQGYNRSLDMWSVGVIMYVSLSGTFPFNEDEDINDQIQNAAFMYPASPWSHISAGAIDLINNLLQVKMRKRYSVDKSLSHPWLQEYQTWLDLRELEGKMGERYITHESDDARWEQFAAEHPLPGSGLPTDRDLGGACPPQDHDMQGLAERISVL

AP-1060 (ETV6-NTRK3) = experiment: Cell viability assay; settings: read-out: IC50 in cell proliferation assay
134 cancer cell lines = experiment: Cell viability assay (ATPlite, 72 hours), IC50 on cancer cell line panel

What does the source list for `Cn1cnc2c(F)c(Nc3ccc(Br)cc3Cl)c(C(=O)NOCCO)cc21` [selumetinib]?
inhibition at 1 µM [1]: -15%; IC50 (AP-1060 (ETV6-NTRK3)): > 31600 nM; IC50 (134 cancer cell lines; HEC-6, read-out: IC50 in cell proliferation assay, HEC-6 cell line (EGFR p.A289V)): > 31600 nM; IC50 (134 cancer cell lines; Homo sapiens, 769-P, read-out: IC50 in cell proliferation assay, cell line 769-P): 665 nM; IC50 (134 cancer cell lines; Homo sapiens, 786-0, read-out: IC50 in cell proliferation assay, cell line 786-O): > 31600 nM; IC50 (134 cancer cell lines; Homo sapiens, A 172, read-out: IC50 in cell proliferation assay, cell line A-172): 25300 nM; IC50 (134 cancer cell lines; Homo sapiens, A204, read-out: IC50 in cell proliferation assay, cell line A-204): > 31600 nM; IC50 (134 cancer cell lines; Homo sapiens, A498, read-out: IC50 in cell proliferation assay, cell line A-498): 137 nM; IC50 (134 cancer cell lines; Homo sapiens, A549, read-out: IC50 in cell proliferation assay, cell line A-549): 132 nM; IC50 (134 cancer cell lines; Homo sapiens, A704, read-out: IC50 in cell proliferation assay, cell line A-704): > 31600 nM; IC50 (134 cancer cell lines; Homo sapiens, A-375, read-out: IC50 in cell proliferation assay, cell line A-375 (BRAF p.V600E)): 145 nM; IC50 (134 cancer cell lines; Homo sapiens, A-427, read-out: IC50 in cell proliferation assay, cell line A-427): 1340 nM; IC50 (134 cancer cell lines; Homo sapiens, ACHN, read-out: IC50 in cell proliferation assay, cell line ACHN): 14400 nM; IC50 (134 cancer cell lines; Homo sapiens, AN3-CA, read-out: IC50 in cell proliferation assay, cell line AN3-CA (FGFR2 p.N549K)): 2330 nM; IC50 (134 cancer cell lines; Homo sapiens, ASPC1, read-out: IC50 in cell proliferation assay, cell line AsPC-1): 210 nM; IC50 (134 cancer cell lines; Homo sapiens, AU565, read-out: IC50 in cell proliferation assay, cell line AU565 (ERBB2 amplification)): > 31600 nM; IC50 (134 cancer cell lines; Homo sapiens, BT-20, read-out: IC50 in cell proliferation assay, cell line BT-20): 9260 nM; IC50 (134 cancer cell lines; Homo sapiens, BT-474, read-out: IC50 in cell proliferation assay, cell line BT-474 (ERBB2 amplification)): > 31600 nM; IC50 (134 cancer cell lines; Homo sapiens, BT-549, read-out: IC50 in cell proliferation assay, cell line BT-549): > 31600 nM; IC50 (134 cancer cell lines; Homo sapiens, BXPC-3, read-out: IC50 in cell proliferation assay, cell line BxPC-3): 472 nM; IC50 (134 cancer cell lines; Homo sapiens, C-33-A, read-out: IC50 in cell proliferation assay, cell line C-33 A): 2.72 nM; IC50 (134 cancer cell lines; Homo sapiens, CAL-27, read-out: IC50 in cell proliferation assay, cell line CAL-27): 61 nM; IC50 (134 cancer cell lines; Homo sapiens, CCF-STTG1, read-out: IC50 in cell proliferation assay, cell line CCF-STTG1): > 31600 nM; IC50 (134 cancer cell lines; Homo sapiens, CCRF-CEM, read-out: IC50 in cell proliferation assay, cell line CCRF-CEM): > 31600 nM; IC50 (134 cancer cell lines; Homo sapiens, COLO 205, read-out: IC50 in cell proliferation assay, cell line COLO 205 (BRAF p.V600E)): 38 nM; IC50 (134 cancer cell lines; Homo sapiens, COLO-829, read-out: IC50 in cell proliferation assay, cell line COLO 829 (BRAF p.V600E)): 117 nM; IC50 (134 cancer cell lines; Homo sapiens, DLD-1, read-out: IC50 in cell proliferation assay, cell line DLD-1): 21400 nM; IC50 (134 cancer cell lines; Homo sapiens, DU-4475, read-out: IC50 in cell proliferation assay, cell line DU4475 (BRAF p.V600E)): 88 nM; IC50 (134 cancer cell lines; Homo sapiens, Daoy, read-out: IC50 in cell proliferation assay, cell line Daoy): > 31600 nM; IC50 (134 cancer cell lines; Homo sapiens, DoTc2-4510, read-out: IC50 in cell proliferation assay, cell line DoTc2 4510): 32 nM; IC50 (134 cancer cell lines; Homo sapiens, EOL1, read-out: IC50 in cell proliferation assay, cell line EoL-1 (FIP1L1-PDGFRA)): 92 nM; IC50 (134 cancer cell lines; Homo sapiens, FaDu, read-out: IC50 in cell proliferation assay, cell line FaDu): 73 nM; IC50 (134 cancer cell lines; Homo sapiens, G-361, read-out: IC50 in cell proliferation assay, cell line G-361 (BRAF p.V600E)): 225 nM; IC50 (134 cancer cell lines; Homo sapiens, HCC827, read-out: IC50 in cell proliferation assay, cell line HCC827 (EGFR exon19del)): 9710 nM; IC50 (134 cancer cell lines; Homo sapiens, HCC4006, read-out: IC50 in cell proliferation assay, cell line HCC4006 (EGFR exon19del)): 26800 nM; IC50 (134 cancer cell lines; Homo sapiens, HCT-15, read-out: IC50 in cell proliferation assay, cell line HCT 15): > 31600 nM; IC50 (134 cancer cell lines; Homo sapiens, HCT-116, read-out: IC50 in cell proliferation assay, cell line HCT 116): 2.26 nM; IC50 (134 cancer cell lines; Homo sapiens, HEC-1, read-out: IC50 in cell proliferation assay, HEC-1 cell line): > 31600 nM; IC50 (134 cancer cell lines; Homo sapiens, HEC-1B, read-out: IC50 in cell proliferation assay, HEC-1-B cell line (EGFR p.A864V)): 27 nM; IC50 (134 cancer cell lines; Homo sapiens, HL-60, read-out: IC50 in cell proliferation assay, HL-60 cell line): 13 nM; IC50 (134 cancer cell lines; Homo sapiens, HT, read-out: IC50 in cell proliferation assay, HT cell line): 14800 nM; IC50 (134 cancer cell lines; Homo sapiens, HT-1080, read-out: IC50 in cell proliferation assay, HT-1080 cell line): 132 nM; IC50 (134 cancer cell lines; Homo sapiens, Hs746T, read-out: IC50 in cell proliferation assay, Hs 746.T cell line (MET exon14skip + amplification)): 19400 nM; IC50 (134 cancer cell lines; Homo sapiens, Hs-578T, read-out: IC50 in cell proliferation assay, Hs 578T cell line): 78 nM; IC50 (134 cancer cell lines; Homo sapiens, HuTu80, read-out: IC50 in cell proliferation assay, HuTu 80 cell line): 413 nM; IC50 (134 cancer cell lines; Homo sapiens, J82, read-out: IC50 in cell proliferation assay, J82 cell line): 265 nM; IC50 (134 cancer cell lines; Homo sapiens, Jurkat E6.1, read-out: IC50 in cell proliferation assay, Jurkat E6.1 cell line): > 31600 nM; IC50 (134 cancer cell lines; Homo sapiens, K562, read-out: IC50 in cell proliferation assay, K-562 cell line): 241 nM; IC50 (134 cancer cell lines; Homo sapiens, KATO III, read-out: IC50 in cell proliferation assay, KATO III cell line (FGFR2 amplification)): 16500 nM; IC50 (134 cancer cell lines; Homo sapiens, KG-1, read-out: IC50 in cell proliferation assay, KG-1 cell line (FGFR1OP2-FGFR1)): 10 nM; IC50 (134 cancer cell lines; Homo sapiens, KLE, read-out: IC50 in cell proliferation assay, KLE cell line): > 31600 nM; IC50 (134 cancer cell lines; Homo sapiens, KMS-11, read-out: IC50 in cell proliferation assay, KMS-11 cell line (FGFR3 p.Y373C)): > 31600 nM; IC50 (134 cancer cell lines; Homo sapiens, KU812, read-out: IC50 in cell proliferation assay, Ku812 cell line): 73 nM; IC50 (134 cancer cell lines; Homo sapiens, Kasumi 1, read-out: IC50 in cell proliferation assay, Kasumi-1 cell line (KIT p.N822K)): 345 nM; IC50 (134 cancer cell lines; Homo sapiens, LC-2-ad, read-out: IC50 in cell proliferation assay, LC-2/ad cell line (CCDC6-RET)): 31000 nM; IC50 (134 cancer cell lines; Homo sapiens, LNCaP-Clone-FGC, read-out: IC50 in cell proliferation assay, LNCaP clone FGC cell line): > 31600 nM; IC50 (134 cancer cell lines; Homo sapiens, LS174T, read-out: IC50 in cell proliferation assay, LS174T cell line): 177 nM; IC50 (134 cancer cell lines; Homo sapiens, LS-411N, read-out: IC50 in cell proliferation assay, LS411N cell line (BRAF p.V600E)): 75 nM; IC50 (134 cancer cell lines; Homo sapiens, LoVo, read-out: IC50 in cell proliferation assay, LoVo cell line): 34 nM; IC50 (134 cancer cell lines; Homo sapiens, MCF7, read-out: IC50 in cell proliferation assay, MCF-7 cell line): > 31600 nM; IC50 (134 cancer cell lines; Homo sapiens, MDA-MB-231, read-out: IC50 in cell proliferation assay, MDA-MB-231 cell line): 1000 nM; IC50 (134 cancer cell lines; Homo sapiens, MDA-MB-453, read-out: IC50 in cell proliferation assay, MDA-MB-453 cell line): 9170 nM; IC50 (134 cancer cell lines; Homo sapiens, MDA-MB-468, read-out: IC50 in cell proliferation assay, MDA-MB-468 cell line): > 31600 nM; IC50 (134 cancer cell lines; Homo sapiens, MG-63, read-out: IC50 in cell proliferation assay, MG-63 cell line): 6090 nM; IC50 (134 cancer cell lines; Homo sapiens, MIA PaCa-2, read-out: IC50 in cell proliferation assay, MIA PaCa-2 cell line): 221 nM; IC50 (134 cancer cell lines; Homo sapiens, MKN-45, read-out: IC50 in cell proliferation assay, MKN45 cell line (MET amplification)): 2680 nM; IC50 (134 cancer cell lines; Homo sapiens, MOLM-13, read-out: IC50 in cell proliferation assay, MOLM-13 cell line (FLT3 ITD)): 822 nM
